Measurements reported in PMC9380258, “Primary and secondary functions of HLA-E are determined by stability and conformation of the peptide-bound complexes” (Cell Reports, 2022).

What was measured:
HLA-E*01:03 = HLA-E*01:03 (Homo sapiens, UniProt P13747); assay: SEC-SAXS of peptide-refolded HLA-E*01:03 complexes
HLA-E [1] = assay type: binding, human
HLA-E [2] = assay type: binding, human; remark: listed apart in the source

## RMAATAVVL [Mtb14 P7V]
HLA-E*01:03
  decrease in the Rg: 6.8 Å
  decrease in the dmax: 23 Å
HLA-E [1]
  increase in the ELISA-based binding signal: 36%
HLA-E [2]
  increase in thermal stability: 3.6 °C
